Source: patent EP4755886A1 (Chengdu Chipscreen Pharmaceutical Ltd., priority 2023, dated 2025)

Legend:
MTAP^-/- HCT-116 cells = assay: Cell proliferation (MTS), MTAP-/- HCT-116; format: cell-based, human; conditions: for Selectivity: HCT116 WT IC50 relative to HCT116 MTAP-/- IC50; for IC50: Homo sapiens, 240 h, MTAP-/- HCT-116, 10 days with compound, MTS reading, read-out: IC50 HCT116 MTAP-/-
In short: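 MTAP-/- (CRISPR/Cas9 biallelic knockout) or wild-type HCT-116 cells seeded at 100 cells/well, treated next day with 8-point 3-fold dilutions (top 20 µM) for 10 days at 37 °C, 5% CO2. Viability read by MTS; IC50 from four-parameter logistic fit of inhibition rate vs log concentration.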

wild-type HCT-116 cells = assay: Cell proliferation (MTS), wild-type HCT-116; format: cell-based; conditions: Homo sapiens, 240 h; wild-type HCT-116, 10 days with compound, MTS reading; read-out: IC50 HCT116 WT
In short: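 Wild-type HCT-116 cells were seeded at 100 cells/well in McCoy's 5A/10% FBS. From day 1 they were treated with compound in 3-fold dilutions (initial 20 µM, 8 points) for 10 days at 37° C. Proliferation was read by MTS on day 11, and IC50 was obtained from a four-parameter logistic fit.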

[1] = Human liver microsome stability; format: in vitro ADME; conditions: pH 7.4; human liver microsomes 0.5 mg/mL, compound 1 µM, NADPH 1 mM, 37 °C
Method: Experimental materials: human liver microsomes (purchased from BIOIVT);
PBS: 0.1 M KH2PO4 and K2HPO4 buffers, pH 7.4.
MgCl2: a certain amount of MgCl2 was weighed out and prepared into a 16 mM MgCl2 solution with PBS.
NADPH (Chinese name: reduced nicotinamide adenine dinucleotide phosphate, purchased from Sigma, Cat. No.: 481973-500 mg): a certain amount of NADPH was weighed out and a 4 mM solution of NADPH was prepared with a 16 mM MgCl2 solution, and the final incubation concentration was 1 mM.
Compounds: 4 µM solutions of the test compounds and positive compounds were prepared with PBS, and the final incubation concentration was 1 µM.
Liver microsomes (purchased from BIOIVT, Cat. No.: X008070): the liver microsomes were diluted to […] with PBS, and the final incubation concentration was 0.5 mg/mL.
The prepared test compound or positive compound was added to a test tube, and then the prepared NADPH was added. The mixture was mixed well. The mixture was pre-incubated in a thermostat incubator at 220 rpm at 37 °C for 5 min, and the prepared liver microsomes were added to start the reaction. All steps were performed in replicate wells. At 0 min, 15 min, 30 min, 45 min, and 60 min, a certain volume of glacial acetonitrile solution containing an internal standard was added to the corresponding tube to precipitate the protein. The mixture was vortexed for 5 min with shaking, and then centrifuged at 4000 rpm for 10 min. […] The samples were analyzed by LC-MS/MS.
The concentrations (peak area ratios) of the example compounds were determined by LC-MS/MS. Rate constants were obtained by plotting "Ln (residual amount of compound %)" versus "incubation time" in Excel, thereby calculating the half-lives and intrinsic clearances of the drugs and providing a basis for the prediction of the in-vivo clearance.
[formula] CLH = CLint × fu × Qh /(CLint×fu+Qh) [formula]
Stability in human liver microsomes

PK experiment in mice = conditions: female, BALB/c, mouse, plasma, po, 10 mg/kg
PK experiment in rats = format: in vivo; conditions: rat; SD male rats, PO 10 mg/kg, vehicle 0.5% MC/0.2% Tween 80, plasma
Method: The samples were analyzed by LC-MS/MS. […] Table 6. Pharmacokinetic parameters for rats

hERG = target: T1, hERG (Homo sapiens, UniProt Q12809); assay: hERG test (Predictor hERG Fluorescence Polarization Assay Kit); format: binding; conditions: for inhibition at 3.5 h, 10 µM: human, probe Predictor hERG Tracer Red, 10 µM test substance, three duplicate wells; for IC50: only 10 µM tested
T1 construct: purchased ThermoFisher Scientific PV5365
Method: Predictor™ hERG Fluorescence Polarization Assay Kit (ThermoFisher Scientific, PV5365).
The procedures in the kit instructions were followed: 4× Predictor™ hERG Tracer Red, 4× E-4031, and 4× test substance solutions (final assay concentration: 10 µM) were prepared in advance. 5 µL Predictor™ hERG FP Assay Buffer and 5 µL Predictor™ hERG Membrane were added sequentially to the Assay Blank group in a 384-well plate. 2.5 µL Predictor™ hERG FP Assay Buffer, 2.5 µL of 4× E-4031, and 2.5 µL of 4× test substance were added to the negative control group, the positive control group, and the test substance group, respectively, and then 5 µL Predictor™ hERG Membrane and 2.5 µL of 4× Predictor™ hERG Tracer Red were sequentially added. The total volume of the experimental system was 10 µL, and three duplicate wells were set for each group. After loading, the plate was gently tapped to mix well and incubated at room temperature (25 °C) in the dark for 3.5 h. After the incubation was completed, the fluorescence polarization value mP was measured on a microplate reader, and G Factor was 2.14.
The inhibition rate of the test substance was calculated using the following formula: [formula]

T1 sequence (Q12809 whole entry): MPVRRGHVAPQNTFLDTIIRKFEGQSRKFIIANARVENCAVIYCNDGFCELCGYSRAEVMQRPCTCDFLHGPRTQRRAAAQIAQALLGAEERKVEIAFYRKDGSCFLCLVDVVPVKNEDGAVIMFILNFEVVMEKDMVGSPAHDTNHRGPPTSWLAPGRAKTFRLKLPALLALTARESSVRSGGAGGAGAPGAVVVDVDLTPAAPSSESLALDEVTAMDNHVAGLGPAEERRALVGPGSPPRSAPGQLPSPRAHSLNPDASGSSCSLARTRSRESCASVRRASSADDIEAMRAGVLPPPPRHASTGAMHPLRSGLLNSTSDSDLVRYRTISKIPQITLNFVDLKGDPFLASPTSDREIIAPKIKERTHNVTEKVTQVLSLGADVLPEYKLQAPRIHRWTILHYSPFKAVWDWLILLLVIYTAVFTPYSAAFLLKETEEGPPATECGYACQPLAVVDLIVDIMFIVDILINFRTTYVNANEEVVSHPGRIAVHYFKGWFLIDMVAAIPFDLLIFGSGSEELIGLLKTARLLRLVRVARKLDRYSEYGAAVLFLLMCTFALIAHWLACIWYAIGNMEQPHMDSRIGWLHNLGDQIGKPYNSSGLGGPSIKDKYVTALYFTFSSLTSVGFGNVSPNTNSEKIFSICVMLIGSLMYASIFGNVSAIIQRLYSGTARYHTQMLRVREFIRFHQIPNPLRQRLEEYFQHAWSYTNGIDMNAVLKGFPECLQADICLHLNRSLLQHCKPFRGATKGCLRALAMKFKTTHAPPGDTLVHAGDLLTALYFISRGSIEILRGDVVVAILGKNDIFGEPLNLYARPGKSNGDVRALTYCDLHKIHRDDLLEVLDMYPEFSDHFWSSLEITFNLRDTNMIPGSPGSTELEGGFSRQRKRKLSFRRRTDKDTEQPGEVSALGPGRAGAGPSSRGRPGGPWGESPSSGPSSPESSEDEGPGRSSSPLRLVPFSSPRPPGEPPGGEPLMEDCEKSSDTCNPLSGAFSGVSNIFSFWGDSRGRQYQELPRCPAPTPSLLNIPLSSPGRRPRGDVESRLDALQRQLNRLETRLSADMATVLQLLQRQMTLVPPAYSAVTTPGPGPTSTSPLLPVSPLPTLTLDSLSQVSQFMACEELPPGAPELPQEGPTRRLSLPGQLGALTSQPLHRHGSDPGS

Row | SMILES | Selectivity (MTAP^-/- HCT-116 cells) | IC50 (MTAP^-/- HCT-116 cells) | IC50 (wild-type HCT-116 cells) | half-life at 1 µM [1] | AUC(0-t) (PK experiment in mice) | Cmax (PK experiment in mice) | AUC(0-t) (PK experiment in rats) | Cmax (PK experiment in rats) | inhibition at 3.5 h, 10 µM (hERG) | IC50 (hERG)
1 | CN(C(=O)c1cc2c3c(c(N)nc2cc1Cl)COC3)[C@@H]1COc2cc(C#Cc3cnn4c3CCCC4)ccc21 [Compound 91A, (S)-4-amino-7-chloro-N-methyl-N-(6-((4,5,6,7-tetrahydropyrazolo[1,5-a]pyridin-3-yl)ethynyl)-2,3-dihydrobenzofuran-3-yl)-1,3-dihydrofuro[3,4-c]quinoline-8-car boxamide] | 195 | 7.1 nM | 1390 nM | 47.2 min | – | – | – | – | – | –
2 | C#Cc1ccc2c(c1)OCC2N(C)C(=O)c1cc2c(cc1F)nc(N)c1cnn(C)c12 (centres unmarked) [Reference Example 1, reference compound] | – | – | – | 16.6 min | – | – | – | – | – | –
3 | CN(C(=O)c1cc2c3c(c(N)nc2cc1F)COC3)[C@@H]1COc2cc(C#Cc3cnn(C4CC4)c3)ccc21 [Compound 16A, (S)-4-amino-N-(6-((1-cyclopropyl-1H-pyrazol-4-yl)ethynyl)-2,3-dihydrobenzofuran-3-yl)-7-fluoro-N-methyl-1,3-dihydrofuro[3,4-c]quinoline-8-carboxamide] | 84 | 13.9 nM | 1160 nM | – | 23300 ± 5520 ng·h/mL | 1600 ± 352 ng/mL | 13700 ± 2780 ng·h/mL | 1280 ± 270 ng/mL | – | –
4 | C#Cc1ccc2c(c1)OC[C@H]2N(C)C(=O)c1cc2c3c(c(N)nc2cc1Cl)COC3 [Reference Example 5, reference compound] | – | – | – | 25.6 min | 9080 ± 2790 ng·h/mL | 1400 ± 165 ng/mL | 2940 ± 438 ng·h/mL | 549 ± 139 ng/mL | – | –
5 | CN(C(=O)c1cc2c(cc1F)nc(N)c1cnn(C)c12)[C@@H]1COc2cc(C#Cc3cnn(C4CC4)c3)ccc21 [Compound 12A, (S)-4-amino-N-(6-((1-cyclopropyl-1H-pyrazol-4-yl)ethynyl)-2,3-dihydrobenzofuran-3-yl)-7-fluoro-N,1-dimethyl-1H-pyrazolo[4,3-c]quinoline-8-carboxamide] | 115 | 3.7 nM | 426 nM | – | 26900 ± 7450 ng·h/mL | 2670 ± 421 ng/mL | – | – | 22.4% | > 10000 nM
6 | CN(C(=O)c1cc2c(cc1F)nc(N)c1cnn(C)c12)[C@@H]1COc2cc(C#Cc3cnc4n3CCCC4)ccc21 [Compound 66A, (S)-4-amino-7-fluoro-N,1-dimethyl-N-(6-((5,6,7,8-tetrahydroimidazo[1,2-a]pyridin-3-yl)ethynyl)-2,3-dihydrobenzofuran-3-yl)-1H-pyrazolo[4,3-c]quinoline-8-carb oxamide] | 150 | 2 nM | 299 nM | – | 23200 ± 3390 ng·h/mL | 3830 ± 533 ng/mL | – | – | 14.2 ± 14% | > 10000 nM
7 | Cc1ncccc1C#Cc1ccc2c(c1)OC[C@H]2N(C)C(=O)c1cc2c3c(c(N)nc2cc1Cl)COC3 [Compound 57A, (S)-4-amino-7-chloro-N-methyl-N-(6-((2-methylpyridin-3-yl)ethynyl)-2,3-dihydrobenzofuran-3-yl)-1,3-dihydrofuro[3,4-c]quinoline-8-carboxamide] | 125 | 8 nM | 1000 nM | – | 10500 ± 2400 ng·h/mL | 1810 ± 195 ng/mL | – | – | 14.2 ± 18% | > 10000 nM
8 | CN(C(=O)c1ccc2nc(N)c3cnn(C)c3c2c1)C1COc2cc(C#Cc3cnn(C4CC4)c3)ccc21 (centres unmarked) [Compound 4, 4-amino-N-(6-((1-cyclopropyl-1H-pyrazol-4-yl)ethynyl)-2,3-dihydrobenzofuran-3-yl)-N,1-dimethyl-1H-pyrazolo[4,3-c]quinoline-8-carboxamide] | 165 | 8 nM | 1320 nM | 169 min | 9150 ± 2240 ng·h/mL | 634 ± 71 ng/mL | – | – | – | –
9 | Nc1nc2cnc(C(=O)N3CCOC[C@@H]3c3ccc(C(F)(F)F)cc3)cc2c2c1COC2 [Reference Example 7, reference compound] | 21 | 97.4 nM | 2010 nM | 28.9 min | 12600 ± 1920 ng·h/mL | 1920 ± 76 ng/mL | 853 ± 79 ng·h/mL | 477 ± 110 ng/mL | – | –
10 | CN(C(=O)c1cc2c3c(c(N)nc2cc1F)COC3)C1COc2cc(C#Cc3cnn(C)c3)ccc21 (centres unmarked) [Compound 39, 4-amino-7-fluoro-N-methyl-N-(6-((1-methyl-1H-pyrazol-4-yl)ethynyl)-2,3-dihydrobenzofuran-3-yl)-1,3-dihydrofuro[3,4-c]quinoline-8-carboxamide] | 148 | 20 nM | 2960 nM | – | 20900 ± 8400 ng·h/mL | 2670 ± 180 ng/mL | – | – | 23.8% | > 10000 nM
11 | C#Cc1ccc2c(c1)OCC2N(C)C(=O)c1ccc2nc(N)c3cnn(C)c3c2c1 (centres unmarked) [Reference Example 2] | – | – | – | 33.6 min | – | – | 784 ± 595 ng·h/mL | 131 ± 17 ng/mL | – | –
